In ChEMBL document CHEMBL1125941, “(2,3)--methylenepenicillanic acid sulfone: synthesis and -lactamase inhibiting properties” (Bioorg Med Chem Lett, 1991):

Columns and labels:
Type in all cases: functional, organism-based
Enterobacter cloacae = test: Compound was evaluated for the inhibition of Enterobacter cloacae P99 cephalosporinase
Staphylococcus aureus = test: Compound was evaluated for the inhibition of Staphylococcus aureus penicillinase (PC1)
Escherichia coli = test: Compound was evaluated for the inhibition of Escherichia coli TEM-1 enzyme

SMILES | IC50 (Enterobacter cloacae) | IC50 (Staphylococcus aureus) | IC50 (Escherichia coli)
C[C@@]12C[C@]1(C(=O)O)N1C(=O)C[C@H]1S2(=O)=O | 12 µM | 548 µM | 406000 nM
CC1(C)[C@H](C(=O)O)N2C(=O)C[C@H]2S1(=O)=O [SULBACTAM] | 20 µM | 6.8 µM | 1900 nM
C[C@]12C[C@@]1(C(=O)O)N1C(=O)C[C@H]1S2(=O)=O | 322 µM | 14 µM | 2500 nM
